Key:
[1] = Binding of metal complexes to particulate carrier (1H NMR relaxation of supernatant); conditions: to aluminium hydroxide; 0.4ml 50mM metal complex, pH 7.5, 3 minutes
Procedure: (§1) The particulates used were generally used as suspensions in distilled water for these studies (250mg/ml). The solid from 1ml of particulate solution was isolated by centrifugation and the supernatant removed. 0.4ml of a 50mM metal complex solution at pH = 7.5 was added and the solid resuspended. […] After 3 minutes the solid was isolated by centrifugation washed once by resuspension in distilled water (0.4ml) followed by recentrifugation to isolate the products. The initial supernatant was analysed by ¹H NMR relaxation measurements at 200MHz and the amount of metal complex bound to the particulate calculated.

[2] = as above; conditions: to magnesium hydroxide; 0.4ml 50mM metal complex, pH 7.5, 3 minutes
Procedure: (§2) The particulates used were generally used as suspensions in distilled water for these studies (250mg/ml). The solid from 1ml of particulate solution was isolated by centrifugation and the supernatant removed. 0.4ml of a 50mM metal complex solution at pH = 7.5 was added and the solid resuspended. […] After 3 minutes the solid was isolated by centrifugation washed once by resuspension in distilled water (0.4ml) followed by recentrifugation to isolate the products. The initial supernatant was analysed by ¹H NMR relaxation measurements at 200MHz and the amount of metal complex bound to the particulate calculated. The particulates were resuspended at 10 mg/ml and the T1 and T2 relaxation times measured at 10MHz and 37°C.

[3] = as above; conditions: to magnesium trisilicate; 0.4ml 50mM metal complex, pH 7.5, 3 minutes
Procedure: as §2

[4] = as above; conditions: to calcium phosphate neutral; 0.4ml 50mM metal complex, pH 7.5, 3 minutes
Procedure: as §1

[5] = as above; conditions: to aluminium phosphate; 0.4ml 50mM metal complex, pH 7.5, 3 minutes
Procedure: as §1

[6] = as above; conditions: to calcium pyrophosphate; 0.4ml 50mM metal complex, pH 7.5, 3 minutes
Procedure: as §2

[7] = as above; conditions: to calcium phosphate basic; 0.4ml 50mM metal complex, pH 7.5, 3 minutes
Procedure: as §1

[8] = as above; conditions: to sodium phosphate glass; 0.4ml 50mM metal complex, pH 7.5, 3 minutes
Procedure: as §2

[9] = as above; conditions: to calcium hydroxide; 0.4ml 50mM metal complex, pH 7.5, 3 minutes
Procedure: as §1

[10] = as above; conditions: to silica; 0.4ml 50mM metal complex, pH 7.5, 3 minutes
Procedure: as §2

[11] = Binding of 153Gd labelled gadolinium complexes, radioactive assay; conditions: total activity of the filtrate as percentage of the original; 12.5mM Gd, 25mM phosphonate where present
Procedure: The binding of gadolinium complexes was also assayed using ¹⁵³Gd labelled solutions. The particulates were used as suspensions (250mg/ml) and isolated by centrifugation. 0.4ml of a radioactively labelled gadolinium complex was then added and the solid resuspended. After three minutes the solid was filtered through a glass sinter and washed with water (≃10ml). The total activity of the filtrate was measured and expressed as a percentage of the original. The gadolinium concentration of the complex in this assay was 12.5mM and the concentration of phosphonate (where present) was 25mM. A further assay involved the addition of 25mM, and 37.5mM Gd with concomitant increase in the phosphonate concentration.

[12] = Stability of 153Gd labelled adducts in acid solution; format: physicochemical; conditions: 5ml 0.2M HCl, 24hrs, percentage of the original activity
Procedure: The stability of the adducts in acid solution was assayed using ¹⁵³Gd labelled adducts. The adducts were prepared as in the binding assays described previously. 5ml of 0.2M HCl was then added to the adduct which was resuspended and left for 24hrs. The suspensions were then filtered through a glass sinter and washed with 5ml distilled water. The total filtrate was then placed into an ion chamber and the total activity measured.

[13] = Binding of metal complexes to particulate carrier (1H NMR relaxation of supernatant); conditions: to calcium phosphate ortho; 0.4ml 50mM metal complex, pH 7.5, 3 minutes
Procedure: The solid from 1ml of particulate solution was isolated by centrifugation and the supernatant removed. 0.4ml of a 50mM metal complex solution at pH = 7.5 was added and the solid resuspended. […] After 3 minutes the solid was isolated by centrifugation washed once by resuspension in distilled water (0.4ml) followed by recentrifugation to isolate the products. The initial supernatant was analysed by ¹H NMR relaxation measurements at 200MHz and the amount of metal complex bound to the particulate calculated.

| Molecule | % Bound [1] [%] | % Bound [2] [%] | % Bound [3] [%] | % Bound [4] [%] | % Bound [5] [%] | % Bound [6] [%] | % Bound [7] [%] | % Bound [8] [%] | % Bound [9] [%] | % Bound [10] [%] | BINDING TO CaPO₄ - RADIOACTIVE ASSAY [11] [%] | BINDING TO CaPYROPHOSPHATE - RADIOACTIVE ASSAY [11] [%] | PERCENTAGE ACTIVITY IN SUPERNATANT ([12]; adduct with Ca₂P₂O₇) [%] | PERCENTAGE ACTIVITY IN SUPERNATANT ([12]; adduct with Ca₃(PO₄)₂) [%] | % Bound [13] [%] |
| --- | --- | --- | --- | --- | --- | --- | --- | --- | --- | --- | --- | --- | --- | --- | --- |
| [Cl][Fe]([Cl])[Cl] [FeCl₃] | 89 | 96 | 93 | 92 | 78 | 50 | 96 | 41 | 98 | 46 | – | – | – | – | – |
| [Cl][Gd]([Cl])[Cl] [GdCl₃] | 98 | 99 | 89 | 98 | – | 68 | 99 | 48 | 99 | 66 | 2.07 | 0.14 | 0.41 | 0.54 | – |
| ferric citrate | 80 | 89 | 50 | 68 | 18 | 28 | 80 | 26 | 74 | 16 | – | – | – | – | 82 |

From patent EP0275215B1, “Contrast agents for the gastrointestinal tract” (GUERBET S.A., priority 1987, dated 1988)
